{"source": "paper PMC11438102", "about": "“Modulation of cannabinoid receptor 2 alters neuroinflammation and reduces formation of alpha-synuclein aggregates in a rat model of nigral synucleinopathy” (Journal of Neuroinflammation, 2024)", "key": {"[1]": {"assay": "Blood brain barrier penetration / pharmacokinetics of SMM-189 in mice", "format": "in vivo", "details": "6 mg/kg", "procedure": "Analysis of the brain-to-blood ratios of SMM-189 were performed by Sai Life Sciences Limited (Telangana, India). All procedures of the study were in accordance with the guidelines provided by the Committee for the Purpose of Control and Supervision of Experiments on Animals (CPCSEA) as published in The Gazette of India, December 15, 1998. Prior approval of the Institutional Animal Ethics Committee (IAEC) was obtained before initiation of the study. In brief, 54 mice were weighed and divided as Group 1 (6 mg/kg, i.p.) and Group 2 (6 mg/kg, by oral (p.o.)). Animals in Group 1 and Group 2 were administered intraperitoneally and orally with SMM-189 solution formulation at 6 mg/kg in 5% Ethanol, 5% Cremophor and 90% Normal Saline, respectively. The blood samples were collected under light isoflurane anesthesia at 0.08, 0.25, 0.5, 1, 2, 4, 8, 12 and 24 h (i.p.) and 0.25, 0.5, 1, 2, 4, 6, 8, 12 and 24 h (p.o.) in labeled micro centrifuge tube containing K2EDTA as anticoagulant. After blood collection, plasma was harvested by centrifugation and stored at -70 °C until analysis. Immediately after collection of blood, brain samples were collected from set of three mice at each time point at 0.08, 0.25, 0.5, 1, 2, 4, 8, 12 and 24 h (Group 1; i.p.) and 0.25, 0.5, 1, 2, 4, 6, 8, 12 and 24 h (Group 2; p.o.). Brain samples were homogenized using ice-cold phosphate buffer saline (pH-7.4) in a ratio of 2 (buffer):1(brain); and homogenates were stored below − 70 ± 10 °C until analysis. Total homogenate volume was three times the brain weight. All samples were processed for analysis by protein precipitation using acetonitrile and analyzed with fit-for-purpose LC-MS/MS method (LLOQ = 1.02 ng/mL for plasma and 6.09 ng/g for brain).\nNon-compartmental-analysis module in Phoenix WinNonlin® (Version 6.3) was used to assess the pharmacokinetic parameters. Maximum concentration (Cmax) and time to reach the maximum concentration (Tmax) were the observed values. The areas under the concentration time curve (AUClast and AUCinf) were calculated by linear trapezoidal rule. The terminal elimination rate constant, ke was determined by regression analysis of the linear terminal portion of the log plasma concentration-time curve. The terminal half-life (T1/2) was estimated as 0.693/ke."}, "CB2": {"system": "CB2", "set-up": "method as in PMID 27766068", "details": "microglia; cited from earlier work"}, "brain immune cells": {"system": "brain immune cells", "assay": "Multicolor flow cytometry of brain immune cells (high cohort)", "format": "in vivo, rat", "procedure": "An additional cohort of rats (termed “high cohort”) was evaluated to determine effects of SMM-189 on immune cell populations in the brain, resident or infiltrating, and the periphery as measured by flow cytometry (Fig. 1). To ensure infiltrating peripheral immune cells, rats were stereotaxically injected with a higher titer of AAV2/5-human WT Asyn (4.6 × 10^12 vg/mL) and underwent an identical drug treatment timeline with animals sacrificed at 4 (SMM-189: n = 5; vehicle: n = 6) and 8 weeks (SMM-189: n = 7; vehicle: n = 7). At sacrifice, animals were deeply anesthetized with euthasol (i.p., 150 mg/kg) and rapid decapitation performed using a sharp guillotine. Brains were collected at endpoints, and brain immune cells isolated and evaluated using multicolor flow cytometry. Additionally, blood was collected at baseline, 4 and 8 weeks (SMM-189: n = 13; vehicle: n = 13) after stereotaxic surgery for PBMCs isolation to immunophenotype using flow cytometry and for plasma evaluation of SMM-189.\nBrains were collected from animals in the high cohort at either 4 or 8 weeks after AAV2/5-human WT Asyn and brain immune cells were isolated from individual hemispheres as previously described. Hemispheres were finely cut in RPMI 1640 media (Gibco Cat#11875-093) with a scalpel blade and enzymatically dissociated with collagenase VIII (1.4U/mL; Sigma Cat#C2139) and DNAse1 (1 mg/mL; Sigma Cat#DN25) in 37°C for 15 min. Enzymes were neutralized with 10%FBS (heat inactivated, Atlanta Biologicals Cat#S11150) in RPMI 1640 complete media and centrifuged 400g at room temperature. Tissue was resuspended in 1x HBSS and mechanically dissociated using a fire-polished Pasteur pipette until a cell suspension was generated. The suspension was passed through a 70µM cell strainer and strainers rinsed twice with 1x HBSS. To remove myelin, the strained suspension was centrifuged at 300g at 4 °C for 5 min and resuspended in 37% percoll and layered between 70% and 30% percoll gradients. The samples were centrifuged at 400g for 30 min at room temperature with the brake disabled. The top myelin layer was aspirated and demyelinated immune cells were collected from the 37% and 70% percoll interface with a pipette and washed with 1x HBSS twice, resuspended in PBS and placed in a 96-well v-bottom plate for flow cytometry staining.\nPeripheral and central immune cell staining was performed similarly as previously published protocols. In brief, immune cells were washed and resuspended in PBS, then incubated for 30 min at room temperature in LIVE/DEAD Fixable Red Dead cell stain (ThermoFisher Scientific Cat#L23102; 1:2000). Following two washes in PBS, Fc receptors were blocked with anti-rat CD32 Fc block diluted 1:100 in FACS buffer (1mM EDTA and 0.1% sodium azide in PBS) for 15 min at 4°C. PBMCs were stained for separate myeloid and lymphoid panels and brain immune cells stained with an antibody panel to identify microglia, monocytes and lymphocytes (Table S1-S3). Fluorophore conjugated antibodies diluted with FACS buffer were incubated at 4 °C for 20 min. Cells stained for surface myeloid markers were fixed in 1% PFA for 25 min and washed in FACS.\nPBMCs stained with lymphoid panel were further probed intracellularly for transcriptional marker Foxp3 to label […] T cells. […] Then washed and resuspended in FACs buffer. All samples had 10uL of AccuCheck Counting beads (ThermoFisher Cat#PCB100) added to final suspension and cells were run on a LSRII Instrument (BD Biosciences, Franklin Lakes, NJ) with FACSDiva software (BD Biosciences). Results were analyzed using FlowJo 10.8.1 software and brain immune populations of monocytes (classical and non-classical), lymphocytes (CD4 + and CD8+) or microglia and PBMC populations defined by specific strategies (Figure S1-S3). […]"}, "[2]": {"details": "4 weeks, high cohort, treatment effect vs vehicle"}, "[3]": {"details": "8 weeks, high cohort, treatment effect"}, "[4]": {"details": "8 weeks, high cohort, vs control"}, "[5]": {"details": "8 weeks, high cohort, vs vehicle"}}}
{"smiles": "O=C(c1ccccc1)c1cc(O)c(-c2cc(Cl)cc(Cl)c2)c(O)c1", "note": "[SMM-189]", "values": [{"measurement": "Cmax", "setting": "[1]; brain, i.p.", "result": 204.64, "unit": "ng/mL"}, {"measurement": "Tmax", "setting": "[1]; brain, i.p.", "result": 30, "unit": "min"}, {"measurement": "Cmax", "setting": "[1]; brain, p.o.", "result": 70.34, "unit": "ng/mL"}, {"measurement": "Tmax", "setting": "[1]; brain, p.o.", "result": 15, "unit": "min"}, {"measurement": "Brain/plasma ratio (Cmax)", "setting": "[1]; i.p.", "result": 0.74}, {"measurement": "Brain/plasma ratio (Cmax)", "setting": "[1]; p.o.", "result": 1.63}, {"measurement": "Cmax", "setting": "[1]; plasma, i.p.", "result": 277.07, "unit": "ng/mL"}, {"measurement": "Tmax", "setting": "[1]; plasma, i.p.", "result": 30, "unit": "min"}, {"measurement": "Cmax", "setting": "[1]; plasma, p.o.", "result": 43.15, "unit": "ng/mL"}, {"measurement": "Tmax", "setting": "[1]; plasma, p.o.", "result": 15, "unit": "min"}, {"measurement": "levels of nuclear phosphorylated cAMP response-element binding protein (pCREB)", "setting": "CB2", "result": "increased"}, {"measurement": "CD3+ lymphocytes parent population in brain", "setting": "brain immune cells; 4 weeks, high cohort", "result": "No CD3 + lymphocytes parent population differences"}, {"measurement": "CD8 T cell frequencies in brain", "setting": "brain immune cells; 4 weeks, high cohort", "result": "not significantly different"}, {"measurement": "MHCII MFI on microglia", "setting": "brain immune cells; 4 weeks, high cohort", "result": "no changes"}, {"measurement": "classical or non-classical monocyte subset frequencies in brain", "setting": "brain immune cells; 4 weeks, high cohort", "result": "no treatment differences"}, {"measurement": "frequency of microglia", "setting": "brain immune cells; 4 weeks, high cohort", "result": "no difference"}, {"measurement": "frequencies of CD4+ T cells in brain", "setting": "brain immune cells; 4 weeks, high cohort, treatment effect", "result": "overall reduction"}, {"measurement": "frequency of CD45hiCD11b myeloid/monocytes in brain", "setting": "brain immune cells; [2]", "result": "reduced"}, {"measurement": "frequency of CD163+ macrophages in brain", "setting": "brain immune cells; [2]", "result": "reduced"}, {"measurement": "MFI of CD11b on microglia", "setting": "brain immune cells; 4 weeks, unlesioned hemispheres, vs control", "result": "reduced"}, {"measurement": "intensity of MHCII on microglia", "setting": "brain immune cells; 8 weeks, high cohort", "result": "no different"}, {"measurement": "microglial MFI of CD11b", "setting": "brain immune cells; [3]", "result": "elevated"}, {"measurement": "microglial MFI of CD172a", "setting": "brain immune cells; [3]", "result": "elevated"}, {"measurement": "brain population frequency of lymphocytes (CD45+CD11b-)", "setting": "brain immune cells; [4]", "result": "did not affect"}, {"measurement": "brain population frequency of macrophages (CD11b+CD163+)", "setting": "brain immune cells; [4]", "result": "did not affect"}, {"measurement": "brain population frequency of microglia (CD45loCD11b+)", "setting": "brain immune cells; [4]", "result": "did not affect"}, {"measurement": "brain population frequency of monocytes (CD45hiCD11b+)", "setting": "brain immune cells; [4]", "result": "did not affect"}, {"measurement": "CD4+ lymphocytes in brain", "setting": "brain immune cells; [5]", "result": "increased"}, {"measurement": "CD8+ lymphocytes in brain", "setting": "brain immune cells; [5]", "result": "decreased"}, {"measurement": "frequency of MHCII+ classical (CD43-) monocytes in brain", "setting": "brain immune cells; 8 weeks, lesioned hemispheres, vs vehicle", "result": "elevated"}]}
